The assay has as its target T1, Human CRF1 receptor (Homo sapiens, UniProt P34998).
T1 construct: host or cells: CHO-K1 (membrane preparation)
T1 sequence (P34998 24-415): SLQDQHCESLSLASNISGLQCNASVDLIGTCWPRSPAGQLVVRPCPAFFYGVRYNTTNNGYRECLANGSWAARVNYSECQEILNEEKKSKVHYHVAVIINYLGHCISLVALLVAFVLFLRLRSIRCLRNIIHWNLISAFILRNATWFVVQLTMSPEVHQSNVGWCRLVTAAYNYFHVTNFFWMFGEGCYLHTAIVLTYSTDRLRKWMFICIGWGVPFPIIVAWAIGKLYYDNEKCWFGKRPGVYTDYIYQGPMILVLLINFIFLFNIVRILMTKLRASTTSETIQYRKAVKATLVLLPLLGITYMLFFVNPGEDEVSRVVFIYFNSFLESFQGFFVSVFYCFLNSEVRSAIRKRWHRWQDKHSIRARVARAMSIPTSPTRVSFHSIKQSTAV
The assay can be described thus: CRF1 receptor binding, scintillation proximity assay (SPA). As to conditions: displacement of [125I]-Sauvagine, CHO-K1 cell membranes. Here is the method: The purpose of this example was to test the in vitro binding of the compounds of the invention to receptor subtypes CRF1 and CRF2. The in vitro binding of the compounds was determined in a scintillation proximity assay (SPA) as described below. The native, human Ucn1 and Ucn2 peptides are included as references. Scintillation Proximity Assay: […] Both cell lines were cultured at 37° C. in a humidified atmosphere with 5% CO2. […] Membranes were prepared by the following protocol: cultured cells were washed twice with cold Dulbecco’s phosphate buffered saline and detached using TrypLE™ (ThermoFisher) and transferred to tubes and centrifuged for 5 minutes at 1000 g at +4° C. Pellets were resuspended in ice cold homogenization buffer (20 mM Hepes pH 7.1, 5 mM MgCl2, 1 mg/ml Bacitracin with 2 complete EDTA-free protease inhibitor cocktail tablets/50 ml (Roche)) and then homogenized for 30 seconds using a Ultra-Turrax T25 tissue homogenizer (IKA) at medium speed. The homogenate was centrifuged at 35,000 g for 15 minutes at +4° C. using an ultracentrifuge, and the supernatant was discarded, and fresh homogenization buffer was added. Homogenization of the pellet was repeated a total of three times. The final pellet was resuspended in a few millilitres of homogenization buffer and protein concentration was determined using the Bradford method. The membrane preparation was transferred to cryotubes, and the aliquots were stored at -80° C. Each membrane preparation was subsequently titrated to give an appropriate window in the assay. Test procedure: […] Plates were sealed and incubated at 25° C. for 2 hours in a plate shaker set at 400 rpm and thereafter centrifuged at 1500 rpm for 10 minutes. SPA plates were let to stand at room temperature for about 16 hours prior to reading on microplate scintillation counter. Displacement of radioligand was measured as reduction in luminescence, and IC50 values were calculated by nonlinear regression analysis of four parameter sigmoidal dose-response curves.
Background: In a scintillation proximity assay essentially only radioactivity close to the scintillant gives light.

Molecules are shown by their SMILES. Numbered stars: 1 amine (or outer) side, 2 acyl side, 3 side chain; on linkers, the order of the positions; unused ones are H or OH. Side chains are listed from the residue outwards. Peptide text beside a SMILES is read from it. * marks the point of attachment. C20 diacid = O=C(O)CCCCCCCCCCCCCCCCCCC(=O)*; γGlu = O=C(O)[C@H](CCC(=O)[*:2])N[*:1]; AEEA = NCCOCCOCC(=O)O

Data on 2 compounds can be found in patent publication US20230233650A1, “NOVEL FATTY ACID MODIFIED UROCORTIN 2 DERIVATIVES AND THE USES THEREOF” (Novo Nordisk A/S, priority 2021, published 2023).

What is called IC50 is the concentration that inhibits the measured activity by half.

With `CC[C@H](C)[C@H](NC(=O)[C@H](CCC(=O)O)NC(=O)[C@H](C)NC(=O)[C@H](CC(N)=O)NC(=O)[C@@H](NC(=O)[C@@H](NC(=O)[C@H](C)NC(=O)[C@H](CCC(N)=O)NC(=O)[C@H](CCC(=O)O)NC(=O)[C@H](CCCNC(=N)N)NC(=O)[C@H](C)NC(=O)[C@H](C)NC(=O)[C@H](CCCNC(=N)N)NC(=O)[C@H](C)NC(=O)[C@H](CCCNC(=N)N)NC(=O)[C@H](C)NC(=O)[C@H](CCC(N)=O)NC(=O)[C@H](CCC(=O)O)NC(=O)[C@H](CC(C)C)NC(=O)[C@H](CC(C)C)NC(=O)[C@@H](NC(=O)[C@H](CCC(N)=O)NC(=O)[C@H](CC(C)C)NC(=O)[C@H](CC(C)C)NC(=O)CNC(=O)[C@@H](NC(=O)[C@@H]1CCCN1C(=O)[C@@H](NC(=O)[C@H](CC(=O)O)NC(=O)[C@H](CC(C)C)NC(=O)[C@H](CO)NC(=O)[C@H](CC(C)C)NC(=O)[C@@H](NC(=O)[C@@H](NC(=O)[C@@H](N)CCCCNC(=O)COCCOCCNC(=O)COCCOCCNC(=O)CC[C@H](NC(=O)CC[C@H](NC(=O)CC[C@H](NC(=O)CCCCCCCCCCCCCCCCCCC(=O)O)C(=O)O)C(=O)O)C(=O)O)[C@@H](C)CC)C(C)C)C(C)C)[C@@H](C)CC)[C@@H](C)CC)[C@@H](C)O)[C@@H](C)O)C(=O)N[C@@H](CC(C)C)C(=O)N[C@@H](C)C(=O)N[C@@H](CCC(=O)O)C(=O)N[C@H](C(N)=O)C(C)C` [Compound 3] (H-K([AEEA-AEEA-γGlu-γGlu-γGlu-C20 diacid])IVLSLDVPIGLLQILLEQARARAAREQATTNAEILAEV-NH2), the IC50 is above 1 µM. Compound `CC[C@H](C)[C@H](NC(=O)[C@H](CCC(=O)O)NC(=O)[C@H](C)NC(=O)[C@H](CC(N)=O)NC(=O)[C@@H](NC(=O)[C@@H](NC(=O)[C@H](C)NC(=O)[C@H](CCC(N)=O)NC(=O)[C@H](CCC(=O)O)NC(=O)[C@H](CCCNC(=N)N)NC(=O)[C@H](C)NC(=O)[C@H](C)NC(=O)[C@H](CCCNC(=N)N)NC(=O)[C@H](C)NC(=O)[C@H](CCCNC(=N)N)NC(=O)[C@H](C)NC(=O)[C@H](CCC(N)=O)NC(=O)[C@H](CCC(=O)O)NC(=O)[C@H](CC(C)C)NC(=O)[C@H](CC(C)C)NC(=O)[C@@H](NC(=O)[C@H](CCC(N)=O)NC(=O)[C@H](CC(C)C)NC(=O)[C@H](CC(C)C)NC(=O)CNC(=O)[C@@H](NC(=O)[C@@H]1CCCN1C(=O)[C@@H](NC(=O)[C@H](CC(=O)O)NC(=O)[C@H](CC(C)C)NC(=O)[C@H](CO)NC(=O)[C@H](CC(C)C)NC(=O)[C@@H](NC(=O)[C@@H](NC(=O)[C@@H](N)CCCCNC(=O)COCCOCCNC(=O)COCCOCCNC(=O)CC[C@H](NC(=O)CC[C@H](NC(=O)CC[C@H](NC(=O)CCCCCCCCCCCCCCCCCCC(=O)O)C(=O)O)C(=O)O)C(=O)O)[C@@H](C)CC)C(C)C)C(C)C)[C@@H](C)CC)[C@@H](C)CC)[C@@H](C)O)[C@@H](C)O)C(=O)N[C@@H](CC(C)C)C(=O)N[C@@H](CCC(=O)O)C(=O)N[C@@H](CCCNC(=N)N)C(=O)N[C@H](C(N)=O)C(C)C` [Compound 4] (H-K([AEEA-AEEA-γGlu-γGlu-γGlu-C20 diacid])IVLSLDVPIGLLQILLEQARARAAREQATTNAEILERV-NH2) had an IC50 above 1 µM.
